Data taken from patent US20220306617A1, “SUBSTITUTED 1,3-PHENYL HETEROARYL DERIVATIVES AND THEIR USE IN THE TREATMENT OF DISEASE” (NOVARTIS AG, priority 2019, published 2022).
“And” between values parts separate entries of the source, which are not always exact repeats. Identical values can stand only once. Counter-ions that a name gives are not always drawn.

Target: T1, abc isoform of human TMEM16A channel expressed in CHO cells (Homo sapiens, UniProt Q5XXA6, DEL476-501)
T1 construct: expressed in transfected cells; host or cells: CHO cells, doxycycline-inducible expression under Blasticidin/Zeocin selection
T1 sequence (Q5XXA6 with tags, fused parts or gaps isoform Q5XXA6-5 DEL539-564): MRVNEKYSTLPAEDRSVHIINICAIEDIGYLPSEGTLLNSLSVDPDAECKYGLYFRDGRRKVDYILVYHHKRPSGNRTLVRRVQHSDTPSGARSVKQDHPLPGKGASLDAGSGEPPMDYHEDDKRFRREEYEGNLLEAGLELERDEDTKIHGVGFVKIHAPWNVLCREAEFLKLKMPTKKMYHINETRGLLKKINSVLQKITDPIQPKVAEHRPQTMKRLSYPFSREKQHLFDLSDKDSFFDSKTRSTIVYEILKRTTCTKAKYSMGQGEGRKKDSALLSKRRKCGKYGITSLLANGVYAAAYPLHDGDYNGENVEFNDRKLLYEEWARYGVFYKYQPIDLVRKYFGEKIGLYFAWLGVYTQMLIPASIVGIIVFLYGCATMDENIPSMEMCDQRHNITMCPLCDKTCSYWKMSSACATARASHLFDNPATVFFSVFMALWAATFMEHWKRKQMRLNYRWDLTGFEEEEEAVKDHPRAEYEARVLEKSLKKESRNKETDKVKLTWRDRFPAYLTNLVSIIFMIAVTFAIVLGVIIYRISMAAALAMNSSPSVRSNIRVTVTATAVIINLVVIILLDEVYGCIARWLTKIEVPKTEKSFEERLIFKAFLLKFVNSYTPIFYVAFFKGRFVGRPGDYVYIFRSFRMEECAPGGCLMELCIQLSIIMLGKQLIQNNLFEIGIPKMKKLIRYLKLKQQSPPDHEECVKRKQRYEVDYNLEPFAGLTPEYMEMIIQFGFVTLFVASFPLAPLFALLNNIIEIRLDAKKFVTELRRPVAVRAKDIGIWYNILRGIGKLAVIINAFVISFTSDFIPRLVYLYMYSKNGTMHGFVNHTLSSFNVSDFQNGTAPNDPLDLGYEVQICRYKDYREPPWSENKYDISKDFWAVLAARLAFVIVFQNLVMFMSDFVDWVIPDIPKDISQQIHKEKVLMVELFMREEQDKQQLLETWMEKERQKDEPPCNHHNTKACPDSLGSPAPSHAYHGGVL
Assay: Automated patch clamping (QPatch) assay to measure TMEM16A activity in whole-cell
Format: cell-based
Conditions: for EC50: CHO cells expressing human TMEM16A (abc), whole-cell automated patch clamp, Hill fit, read-out: TMEM16A QPATCH assay EC50 V3 EC50; for Emax: CHO, read-out: TMEM16A QPATCH assay EC50 V3 Assay Window (% TMEM16A max activation)
In short: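 CHO cells with doxycycline-induced (1 μg/mL, 18-24 h) human TMEM16A abc isoform; QPatch whole-cell recording, hold −70 mV, step +70 mV 1500 ms, then −90 to +70 mV ramp. Compounds in 0.3% DMSO; EC50 by Hill fit; % max activation relative to vehicle baseline and reference potentiator maximum.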

[1] = maximum current at highest dose relative to reference potentiator at maximal concentration (upper limit) and vehicle (lower limit)

| SMILES | EC50 | Emax [1] [%] | TMEM16A QPATCH assay EC50 V3 Assay Window (% TMEM16A max activation) [1] [%] |
| --- | --- | --- | --- |
| COC(=O)C1(NC(=O)c2cnc(-c3cccc(-c4cc(C(=O)N[C@@H](C)C5CC5)[nH]n4)c3)o2)CCC1 [Example 1.49, (S)-Methyl 1-(2-(3-(5-((1-Cyclopropylethyl)Carbamoyl)-1H-Pyrazol-3-Yl)Phenyl)Oxazole-5-Carboxamido)Cyclobutanecarboxylate] | 400 nM | 70 | – |
| O=C(NC(C1CC1)C1CC1)c1nnc(-c2cccc(-c3ncc(C(=O)NC(C4CC4)C4CC4)o3)c2)[nH]1 [Example 12.8, N-(Dicyclopropylmethyl)-2-(3-(5-((Dicyclopropylmethyl)Carbamoyl)-4H-1,2,4-Triazol-3-Yl)Phenyl)Oxazole-5-Carboxamide] | 20 nM | 119 | – |
| C[C@@H](NC(=O)c1nnc(-c2cccc(-c3ncc(C(=O)NC(C4CC4)C4CC4)o3)c2)[nH]1)C1CC1 [Example 13.1, (R)-2-(3-(5-((1-Cyclopropylethyl)Carbamoyl)-4H-1,2,4-Triazol-3-Yl)Phenyl)-N-(Dicyclopropylmethyl)Oxazole-5-Carboxamide] | 110 nM | 88 | – |
| CCOC(=O)CCCn1nc(-c2cccc(-c3ncc(C(=O)NC(CC)CC)o3)c2)nc1C(=O)NC(CC)CC [Example 15.8, Ethyl 4-(5-(Pentan-3-Ylcarbamoyl)-3-(3-(5-(Pentan-3-Ylcarbamoyl)Oxazol-2-Yl)Phenyl)-1H-1,2,4-Triazol-1-Yl)Butanoate] | 90 nM | 95 | – |
| COC(=O)[C@@H](NC(=O)c1cnc(-c2cccc(-c3cc(C(=O)NC(C4CC4)C4CC4)n(CC(C)(C)O)n3)c2)o1)C(C)C [Example 9.4, (S)-Methyl 2-(2-(3-(5-((Dicyclopropylmethyl)Carbamoyl)-1-(2-Hydroxy-2-Methylpropyl)-1 H-Pyrazol-3-Yl)Phenyl)Oxazole-5-Carboxamido)-3-Methylbutanoate] | 420 nM | 105 | – |
| CCC(CC)NC(=O)c1cnc(-c2cccc(-c3cc(C(=O)N[C@@H](C)C(=O)OC)n[nH]3)c2)o1 [Example 3.42, (S)-Methyl 2-(5-(3-(5-(Pentan-3-Ylcarbamoyl)Oxazol-2-Yl)Phenyl)-1H-Pyrazole-3-Carboxamido)Propanoate] | 690 nM | 86 | – |
| CCOC(=O)[C@@H](NC(=O)c1cnc(-c2cccc(-c3cc(C(=O)NC(C4CC4)C(F)(F)F)[nH]n3)c2)o1)C(C)C (single isomer, unassigned) [Example 2.3 (i)] | 30 nM | 86 | – |
| CCOC(=O)[C@H](Cc1ccccc1)NC(=O)c1cc(-c2cccc(-c3ncc(C(=O)NC(CC)CC)o3)c2)[nH]n1 [Example 3.66, (S)-Ethyl 2-(5-(3-(5-(Pentan-3-Ylcarbamoylyl-Carbamoyl)Oxazol-2-Yl)Phenyl)-1H-Pyrazole-3-Carboxamido)-3-Phenylpropanoate Trifluoroacetate] | 140 nM | 80 | – |
| CCC(CC)NC(=O)c1cc(-c2cccc(-c3ncc(C(=O)NCc4c(F)cccc4F)o3)c2)[nH]n1 [Example 1.43, N-(2,6-Difluorobenzyl)-2-(3-(3-(Pentan-3-Ylcarbamoyl)-1H-Pyrazol-5-yl)Phenyl)Oxazole-5-Carboxamide] | 430 nM | 70 | – |
| CCC(CC)NC(=O)c1cnc(-c2cccc(-c3cc(C(=O)NC(CC)C(C)C)n[nH]3)c2)o1 (centres unmarked) [Example 3.29, 2-(3-(3-((2-Methylpentan-3-Yl)Carbamoyl)-1H-Pyrazol-5-Yl)Phenyl)-N-(Pentan-3-Yl)Oxazole-5-Carboxamide] | 40 nM | 94 | – |
| CCOC(=O)[C@@H](NC(=O)c1cnc(-c2cccc(-c3cc(C(=O)NC(CC)CC)n[nH]3)c2)o1)C(C)C [Example 1.1, (S)-Ethyl 3-Methyl-2-(2-(3-(3-(Pentan-3-Ylcarbamoyl)-1 H-Pyrazol-5-Yl)Phenyl)Oxazole-5-Carboxamido)Butanoate] | 20 nM and 10 nM | 90 | 100 |
| CCC(CC)NC(=O)c1cc(-c2cccc(-c3ncc(C(=O)NC4CCCC4)o3)c2)[nH]n1 [Example 1.2] | 800 nM | 83 | – |
| CCC(CC)NC(=O)c1cnc(-c2cccc(-c3cc(C(=O)N[C@@H](C)COC)n[nH]3)c2)o1 [Example 3.11, (S)-2-(3-(3-((1-Methoxypropan-2-Yl)Carbamoyl)-1H-Pyrazol-5-Yl)Phenyl)-N-(Pentan-3-Yl)Oxazole-5-Carboxamide] | 590 nM | 91 | – |
| CCC(CC)NC(=O)c1cc(-c2cccc(-c3ncc(C(=O)N[C@@H](C(=O)OC)c4ccccc4)o3)c2)[nH]n1 [Example 1.39, (R)-Methyl 2-(2-(3-(3-(Pentan-3-Ylcarbamoyl)-1H-Pyrazol-5-yl)Phenyl)Oxazole-5-Carboxamido)-2-Phenylacetate] | 880 nM | 66 | – |
| CCC(CC)NC(=O)c1cnc(-c2cccc(-c3cc(C(=O)NCC(C)(C)OC)n[nH]3)c2)o1 [Example 3.12, 2-(3-(3-((2-Methoxy-2-Methylpropyl)Carbamoyl)-1H-Pyrazol-5-Yl)Phenyl)-N-(Pentan-3-Yl)Oxazole-5-Carboxamide] | 270 nM | 76 | – |
| C[C@H](NC(=O)c1cnc(-c2cccc(-c3cc(C(=O)N[C@@H](C)C4CC4)n(CC(C)(C)O)n3)c2)o1)C1CC1 [Example 6.3, N-((S)-1-Cyclopropylethyl)-2-(3-(5-(((S)-1-Cyclopropylethyl)Carbamoyl)-1-(2-Hydroxy-2-Methylpropyl)-1H-Pyrazol-3-Yl)Phenyl)Oxazole-5-Carboxamide] | 250 nM | 73 | – |
| CCC(CC)NC(=O)c1cnc(-c2cccc(-c3cc(C(=O)N4CCCC4C(C)C)n[nH]3)c2)o1 (centres unmarked) [Example 3.31, 2-(3-(3-(2-Isopropylpyrrolidine-1-Carbonyl)-1H-Pyrazol-5-Yl)Phenyl)-N-(Pentan-3-Yl)Oxazole-5-Carboxamide] | 180 nM | 87 | – |
| CCC(CC)NC(=O)c1cnc(-c2cccc(-c3ncc(C(=O)NC(CC)CC)o3)c2)o1 [Example 18.0, 2,2′-(1,3-Phenylene)Bis(N-(Pentan-3-Yl)Oxazole-5-Carboxamide)] | 140 nM | 97 | – |
| CCC(CC)NC(=O)c1cc(-c2cccc(-c3ncc(C(=O)N[C@@H](C)C4CCCCC4)o3)c2)[nH]n1 [Example 1.24, (S)-N-(1-Cyclohexylethyl)-2-(3-(3-(Pentan-3-Ylcarbamoyl)-1H-Pyrazol-5-yl)Phenyl)Oxazole-5-Carboxamide] | 180 nM | 83 | – |
| CCOC(=O)[C@@H](NC(=O)c1cc(-c2cccc(-c3ncc(C(=O)NC(CC)CC)o3)c2)nn1CCOP(=O)(OCC)OCC)C(C)C [Example 11.0, (S)-Ethyl 2-(1-(2-((Diethoxyphosphoryl)Oxy)Ethyl)-3-(3-(5-(Pentan-3-Ylcarbamoyl)Oxazol-2-Yl)Phenyl)-1H-Pyrazole-5-Carboxamido)-3-Methylbutanoate] | 610 nM | 128 | – |
| CCC(CC)NC(=O)c1cnc(-c2cccc(-c3cc(C(=O)N[C@@H](C)C4CC4)n(CC(O)C(F)(F)F)n3)c2)o1 (stereo partly drawn) [Example 9.1, 2-(3-(5-(((S)-1-Cyclopropylethyl)Carbamoyl)-1-(3,3,3-Trifluoro-2-Hydroxypropyl)-1H-Pyrazol-3-Yl)Phenyl)-N-(Pentan-3-Yl)Oxazole-5-Carboxamide] | 80 nM | 155 | – |
| CCC(CC)NC(=O)c1cc(-c2cccc(-c3ncc(C(=O)N[C@@H](C)C4CC4)o3)c2)nn1CCO [Example 4.0, (S)-N-(1-Cyclopropylethyl)-2-(3-(1-(2-Hydroxyethyl)-5-(Pentan-3-Ylcarbamoyl)-1 H-Pyrazol-3-Yl)Phenyl)Oxazole-5-Carboxamide] | 330 nM | 106 | – |
| CCC(CC)NC(=O)c1cc(-c2cccc(-c3ncc(C(=O)NC(C)(C)CCc4ccccc4)o3)c2)[nH]n1 [Example 3.68, N-(2-Methyl-4-Phenylbutan-2-Yl)-2-(3-(3-(Pentan-3-Ylcarbamoylyl-Carbamoyl)-1H-Pyrazol-5-Yl)Phenyl)Oxazole-5-Carboxamide] | 160 nM | 88 | – |
